Reference: patent US12480151B2, “DNA preservation in biological specimens using metal chelators” (Northeastern University, priority 2020, dated 2025)

Assays:
[1] = tested on: high molecular weight DNA in tissues of Mytilus edulis, Faxonius virilis and Alitta virens; experiment: Preservation of high molecular weight DNA in stored tissue, TapeStation % R and nY, statements covering several taxa; conditions: M. edulis and F. virilis, 3 months
Method: (§1) To evaluate the contributions of the three components of DESS to DNA preservation in tissues, DNA quality was compared among extracts of tissues from three aquatic invertebrate taxa preserved for various time intervals in DESS or one of six DESS-variant solutions in a full factorial design. Each of these six variants contained either one of the three components of DESS individually or one of the three possible pairwise combinations of two DESS components. […] All solutions were prepared at room temperature (22-24° C.) using distilled deionized water as the diluent.
Live specimens of M. edulis and F. virilis were stored on ice and live A. virens were stored at 4° C. prior to dissection. Gill, abdominal muscle and body tissue samples were collected immediately after euthanasia from specimens of M. edulis, F. virilis, and A. virens, respectively. […] DNA was extracted from the ninth subsample, hereafter referred to as fresh tissue, immediately after dissection without preservation. […]
After the assigned storage interval, each tissue sample was removed from its storage solution and reweighed. […] To control for changes in tissue weight during storage, a correction ratio was calculated by dividing the tissue weight prior to storage by the post storage weight. […]

[2] = tested on: high molecular weight DNA in tissues of Mytilus edulis, Faxonius virilis and Alitta virens; experiment: Qualitative DNA fragment length distribution by agarose gel electrophoresis, several taxa; conditions: M. edulis and F. virilis, 6 months, room temperature
Method: (§2) Live specimens of M. edulis and F. virilis were stored on ice and live A. virens were stored at 4° C. prior to dissection. Gill, abdominal muscle and body tissue samples were collected immediately after euthanasia from specimens of M. edulis, F. virilis, and A. virens, respectively. […] DNA was extracted from the ninth subsample, hereafter referred to as fresh tissue, immediately after dissection without preservation. […] Seven specimens of M. edulis, seven specimens of F. virilis and ten specimens of A. virens were assigned to each time interval for a total of 35 M. edulis, 35 F. virilis and 50 A. virens.

[3] = tested on: high molecular weight DNA in tissues of Alitta virens; experiment: pH study: tissue stored 1 year in EDTA solutions at pH 8.0, 9.0, 10.0; conditions: A. virens, one year of storage, room temperature
Text: The tissues of 5 species of aquatic animals were stored in the resulting solutions at room temperature for periods ranging from 6 weeks to 12 months.

[4] = tested on: high molecular weight DNA in gill tissue of Mytilus edulis; experiment: Preservation of high molecular weight DNA in stored tissue, TapeStation % R and nY; conditions: M. edulis, 3 months, room temperature
Method: as §1, §2
(§3) After the assigned storage interval, each tissue sample was removed from its storage solution and reweighed. […] To control for changes in tissue weight during storage, a correction ratio was calculated by dividing the tissue weight prior to storage by the post storage weight. Each extract subsample weight was then multiplied by the correction ratio to estimate the fresh tissue weight equivalent for that subsample. These values were then used to calculate normalized yield (see statistical analysis). DNA was extracted from tissues using the DNeasy Blood and Tissue Kit (Qiagen; Hilden, Germany) following the manufacturers recommended protocol with tissues digested overnight and DNA eluted by adding two sequential 50 μl volumes of Buffer AE for a total elution volume of 100 μl. […]

[5] = tested on: high molecular weight DNA in body tissue of Alitta virens; experiment: as above; conditions: A. virens, 3 months, room temperature
Method: as §1, §2, §3

[6] = tested on: rat; conditions: oral; cited from earlier work

CCO [EtOH, ethanol]
normalized high molecular weight DNA yield (nY) [1]: equal to or significantly greater than fresh tissues | percent high molecular weight DNA recovered (% R) [1]: equal to or significantly greater than fresh tissues | high molecular weight DNA visualized by agarose gel electrophoresis [2]: evident | high molecular weight DNA yielded [3]: little or no high molecular weight DNA | percent high molecular weight DNA recovered (% R), average [4]: 15.37% | normalized high molecular weight DNA yield (nY) [5]: performed significantly better than tissues preserved in DE, DSS, D and E | percent high molecular weight DNA recovered (% R) [5]: performed significantly better than tissues preserved in DE, DSS, D and E

[Cl-].[Na+] [NaCl, sodium chloride]
LD50 [6]: 3,000 mg/kg
